Experiments:
[1] = Plasma concentration in SCID mouse xenografted with PTEN-deficient human PC3 cells at 300 mg/kg, po BID measured after 1 hr; format: ADME, organism-based, PC-3; parameters: dose 300 mg/kg, route oral
[2] = Plasma concentration in SCID mouse xenografted with PTEN-deficient human PC3 cells at 300 mg/kg, po BID measured after 3 hrs; format: ADME, organism-based, PC-3; parameters: dose 300 mg/kg, route oral
[3] = Plasma concentration in SCID mouse xenografted with PTEN-deficient human PC3 cells at 300 mg/kg, po BID measured after 6 hrs; format: ADME, organism-based, PC-3; parameters: dose 300 mg/kg, route oral
Nucleic Acid = test: Ratio of drug uptake in plasma to tumor of SCID mouse xenografted with PTEN-deficient human PC3 cells at 300 mg/kg, po BID measured after 0.5 to 24 hrs; format: ADME, organism-based, PC-3; parameters: dose 300 mg/kg, route oral; details: in vivo
Plasma [4] = test: Plasma concentration in SCID mouse xenografted with PTEN-deficient human PC3 cells at 300 mg/kg, po BID measured after day 1; format: ADME, organism-based, PC-3; parameters: dose 300 mg/kg, route oral; details: in vivo
Plasma [5] = test: Plasma concentration in SCID mouse xenografted with PTEN-deficient human PC3 cells at 300 mg/kg, po BID measured after day 4; format: ADME, organism-based, PC-3; parameters: dose 300 mg/kg, route oral; details: in vivo
Mus musculus [6] = test: Toxicity in SCID mouse bearing PTEN-deficient human PC3 cells at 300 mg/kg, po BID for 9 days; format: organism-based, PC-3; parameters: dose 300 mg/kg, route oral; details: in vivo, 216 h
Mus musculus [7] = test: Toxicity in SCID mouse bearing PTEN-deficient human PC3 cells assessed as weight loss at 300 mg/kg, po BID for 9 days; format: organism-based, PC-3; parameters: dose 300 mg/kg, route oral; details: in vivo, 216 h
[8] = molecular target: T1, Phosphatidylinositol 4,5-bisphosphate 3-kinase catalytic subunit beta isoform (Homo sapiens, UniProt P42338); test: Inhibition of human PI3Kbeta-mediated Akt phosphorylation at Ser473 residue expressed in PTEN-deficient human PC3 cells by chemiluminescence assay; format: cell-based, PC-3
[9] = molecular target: T2, Phosphatidylinositol 4,5-bisphosphate 3-kinase catalytic subunit alpha isoform (Homo sapiens, UniProt P42336); test: Inhibition of N-terminus poly-His tagged human PI3Kalpha expressed in baculovirus infected insect sf9 cells coexpressing p85alpha using PI(4,5)P2 as substrate preincubated with compound for 15 mins measured after 10 mins by HTRF assay
[10] = molecular target: T1, Phosphatidylinositol 4,5-bisphosphate 3-kinase catalytic subunit beta isoform; test: Inhibition of N-terminus poly-His tagged human PI3Kbeta expressed in baculovirus infected insect […] cells coexpressing p85alpha using PI(4,5)P2 as substrate preincubated with compound for 15 mins measured after 10 mins by HTRF assay
[11] = molecular target: Phosphatidylinositol 4,5-bisphosphate 3-kinase catalytic subunit gamma isoform (Homo sapiens, UniProt P48736); test: Inhibition of N-terminus poly-His tagged human PI3Kgamma expressed in baculovirus infected insect sf9 cells using PI(4,5)P2 as substrate preincubated with compound for 15 mins measured after 10 mins by HTRF assay
[12] = molecular target: Serine/threonine-protein kinase mTOR (Homo sapiens, UniProt P42345); test: Inhibition of mTOR
[13] = molecular target: T1, Phosphatidylinositol 4,5-bisphosphate 3-kinase catalytic subunit beta isoform; test: Inhibition of human PI3Kbeta-mediated Akt phosphorylation at T308 residue expressed in PTEN-deficient human PC3 cells after 2 hrs by Western blot analysis; format: cell-based, PC-3
Cytochrome P450 3A4 = Cytochrome P450 3A4 (Homo sapiens, UniProt P08684); test: Inhibition of human recombinant CPY3A4
[14] = Drug metabolism in human liver microsomes; format: ADME, Microsome; details: read-out: Drug metabolism
[15] = molecular target: T2, Phosphatidylinositol 4,5-bisphosphate 3-kinase catalytic subunit alpha isoform; test: Inhibition of human PI3Kalpha-mediated Akt phosphorylation at Ser473 residue expressed in human H460 cells after 0.5 to 2 hrs by Western blot analysis; format: cell-based
[16] = molecular target: T1, Phosphatidylinositol 4,5-bisphosphate 3-kinase catalytic subunit beta isoform; test: Inhibition of human PI3Kbeta-mediated Akt phosphorylation at Ser473 residue expressed in mouse MEF-3T3 cells after 0.5 to 2 hrs by Western blot analysis; format: cell-based
Mus musculus [17] = test: Tlast in CB17/ICR-Prkdc SCID mouse at 6 mg/kg, iv; format: ADME, organism-based; parameters: dose 6 mg/kg, route intravenous; details: in vivo
[18] = AUC (0 to 24 hrs) in CB17/ICR-Prkdc SCID mouse at 6 mg/kg, iv; format: ADME, organism-based; parameters: time < 24 hr, dose 6 mg/kg, route intravenous; details: plasma
[19] = AUC (0 to infinity) in CB17/ICR-Prkdc SCID mouse at 6 mg/kg, iv; format: ADME, organism-based; parameters: time infinity, dose 6 mg/kg, route intravenous; details: plasma
[20] = Terminal half life in CB17/ICR-Prkdc SCID mouse at 6 mg/kg, iv; format: ADME, organism-based; parameters: dose 6 mg/kg, route intravenous; details: in vivo, read-out: beta t1/2 (converted)
[21] = Clearance in CB17/ICR-Prkdc SCID mouse at 6 mg/kg, iv; format: ADME, organism-based; parameters: dose 6 mg/kg, route intravenous; details: in vivo
[22] = Cmax in CB17/ICR-Prkdc SCID mouse at 10 mg/kg, po; format: ADME, organism-based; parameters: dose 10 mg/kg, route oral; details: in vivo
[23] = AUC (0 to Tlast) in CB17/ICR-Prkdc SCID mouse at 10 mg/kg, po; format: ADME, organism-based; parameters: dose 10 mg/kg, route oral; details: plasma
Mus musculus [24] = test: Tlast in CB17/ICR-Prkdc SCID mouse at 10 mg/kg, po; format: ADME, organism-based; parameters: dose 10 mg/kg, route oral; details: in vivo
[25] = Oral bioavailability in CB17/ICR-Prkdc SCID mouse at 10 mg/kg; format: ADME, organism-based; details: in vivo
Mus musculus [26] = test: Inhibition of Akt phosphorylation at T308 residue in tumor of po dosed SCID mouse bearing human PTEN-deficient PC3 cells administered BID; format: functional, organism-based; details: PC-3
Mus musculus [27] = test: Inhibition of Akt phosphorylation at T308 residue in plasma of po dosed SCID mouse bearing human PTEN-deficient PC3 cells administered BID; format: functional, organism-based; details: PC-3, Plasma
[28] = Drug uptake in tumor of SCID mouse xenografted with PTEN-deficient human PC3 cells at 300 mg/kg, po BID measured after 24 hrs; format: ADME, organism-based, Neoplasm, PC-3; parameters: dose 300 mg/kg, route oral; details: read-out: Drug uptake
[29] = Plasma concentration in SCID mouse xenografted with PTEN-deficient human PC3 cells at 300 mg/kg, po BID measured after 0.5 hrs; format: ADME, organism-based, PC-3; parameters: dose 300 mg/kg, route oral

T1 sequence (P42338 whole entry, canonical isoform): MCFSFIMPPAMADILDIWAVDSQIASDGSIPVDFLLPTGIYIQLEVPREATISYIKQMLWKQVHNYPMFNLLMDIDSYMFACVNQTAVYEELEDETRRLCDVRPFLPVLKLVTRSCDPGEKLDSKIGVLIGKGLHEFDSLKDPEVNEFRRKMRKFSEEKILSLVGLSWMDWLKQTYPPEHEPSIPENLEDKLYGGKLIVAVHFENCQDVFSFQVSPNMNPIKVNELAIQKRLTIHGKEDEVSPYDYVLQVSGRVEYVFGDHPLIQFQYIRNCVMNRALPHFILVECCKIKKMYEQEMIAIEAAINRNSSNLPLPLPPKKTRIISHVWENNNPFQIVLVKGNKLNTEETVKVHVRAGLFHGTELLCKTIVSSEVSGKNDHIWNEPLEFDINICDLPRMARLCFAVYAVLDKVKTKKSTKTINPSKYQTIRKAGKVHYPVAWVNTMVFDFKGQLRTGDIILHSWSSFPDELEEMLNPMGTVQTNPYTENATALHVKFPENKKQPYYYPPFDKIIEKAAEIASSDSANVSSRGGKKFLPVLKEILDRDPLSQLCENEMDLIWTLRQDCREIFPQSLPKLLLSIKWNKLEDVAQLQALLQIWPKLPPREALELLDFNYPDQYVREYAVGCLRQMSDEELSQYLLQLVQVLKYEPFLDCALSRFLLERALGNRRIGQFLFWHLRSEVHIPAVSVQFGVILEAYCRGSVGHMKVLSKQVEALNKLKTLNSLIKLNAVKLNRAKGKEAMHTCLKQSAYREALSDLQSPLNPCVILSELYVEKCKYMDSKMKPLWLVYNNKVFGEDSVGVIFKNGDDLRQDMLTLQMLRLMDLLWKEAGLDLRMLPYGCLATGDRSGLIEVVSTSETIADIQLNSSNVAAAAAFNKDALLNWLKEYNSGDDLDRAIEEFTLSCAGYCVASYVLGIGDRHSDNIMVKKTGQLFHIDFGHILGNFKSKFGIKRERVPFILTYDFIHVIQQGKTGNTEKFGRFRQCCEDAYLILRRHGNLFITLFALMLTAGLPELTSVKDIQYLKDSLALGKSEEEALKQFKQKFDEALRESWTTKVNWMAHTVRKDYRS
T2 sequence (P42336 whole entry, canonical isoform): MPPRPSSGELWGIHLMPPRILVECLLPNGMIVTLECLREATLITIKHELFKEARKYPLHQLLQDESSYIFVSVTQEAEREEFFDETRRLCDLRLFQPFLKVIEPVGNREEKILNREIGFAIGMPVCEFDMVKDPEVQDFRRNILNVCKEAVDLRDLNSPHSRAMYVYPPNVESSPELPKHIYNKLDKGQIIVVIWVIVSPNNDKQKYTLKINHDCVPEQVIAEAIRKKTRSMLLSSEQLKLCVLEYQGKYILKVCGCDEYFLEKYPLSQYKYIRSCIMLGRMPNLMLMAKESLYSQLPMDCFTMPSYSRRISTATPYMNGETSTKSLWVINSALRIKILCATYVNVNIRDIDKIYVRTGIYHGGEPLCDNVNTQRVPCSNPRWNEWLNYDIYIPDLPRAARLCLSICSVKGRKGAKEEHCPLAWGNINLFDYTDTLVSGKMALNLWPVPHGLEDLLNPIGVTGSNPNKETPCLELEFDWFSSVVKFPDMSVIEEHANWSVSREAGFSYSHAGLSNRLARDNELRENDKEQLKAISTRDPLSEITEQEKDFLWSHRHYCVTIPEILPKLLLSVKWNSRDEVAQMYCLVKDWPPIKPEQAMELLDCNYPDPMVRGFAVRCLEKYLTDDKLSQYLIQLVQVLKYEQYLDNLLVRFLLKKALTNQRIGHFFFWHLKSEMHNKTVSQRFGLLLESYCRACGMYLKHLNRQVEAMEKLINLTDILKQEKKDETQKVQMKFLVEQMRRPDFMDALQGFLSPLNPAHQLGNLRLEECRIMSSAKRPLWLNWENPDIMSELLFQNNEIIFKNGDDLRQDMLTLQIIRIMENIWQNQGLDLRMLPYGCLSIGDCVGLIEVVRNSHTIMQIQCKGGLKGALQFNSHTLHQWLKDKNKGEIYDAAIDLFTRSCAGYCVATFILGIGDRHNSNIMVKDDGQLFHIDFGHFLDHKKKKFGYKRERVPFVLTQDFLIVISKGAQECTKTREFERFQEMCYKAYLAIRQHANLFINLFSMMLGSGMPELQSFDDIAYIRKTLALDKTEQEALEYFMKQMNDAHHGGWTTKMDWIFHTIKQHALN
Sequence of Cytochrome P450 3A4 (P08684 whole entry): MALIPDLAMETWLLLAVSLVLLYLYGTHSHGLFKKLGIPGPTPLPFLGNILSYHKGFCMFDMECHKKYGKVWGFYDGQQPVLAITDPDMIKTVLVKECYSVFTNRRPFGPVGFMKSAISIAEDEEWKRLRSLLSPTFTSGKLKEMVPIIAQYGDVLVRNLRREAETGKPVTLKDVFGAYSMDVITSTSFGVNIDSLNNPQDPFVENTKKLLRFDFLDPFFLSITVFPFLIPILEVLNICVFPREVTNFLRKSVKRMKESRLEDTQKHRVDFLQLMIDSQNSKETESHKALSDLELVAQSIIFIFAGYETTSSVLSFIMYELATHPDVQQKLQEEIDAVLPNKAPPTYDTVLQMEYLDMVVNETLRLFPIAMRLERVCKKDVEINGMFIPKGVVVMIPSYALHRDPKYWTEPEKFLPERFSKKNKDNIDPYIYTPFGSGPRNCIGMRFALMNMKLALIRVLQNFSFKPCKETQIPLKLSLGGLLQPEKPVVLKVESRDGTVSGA
Sequence of Phosphatidylinositol 4,5-bisphosphate 3-kinase catalytic subunit gamma isoform (P48736 whole entry, canonical isoform): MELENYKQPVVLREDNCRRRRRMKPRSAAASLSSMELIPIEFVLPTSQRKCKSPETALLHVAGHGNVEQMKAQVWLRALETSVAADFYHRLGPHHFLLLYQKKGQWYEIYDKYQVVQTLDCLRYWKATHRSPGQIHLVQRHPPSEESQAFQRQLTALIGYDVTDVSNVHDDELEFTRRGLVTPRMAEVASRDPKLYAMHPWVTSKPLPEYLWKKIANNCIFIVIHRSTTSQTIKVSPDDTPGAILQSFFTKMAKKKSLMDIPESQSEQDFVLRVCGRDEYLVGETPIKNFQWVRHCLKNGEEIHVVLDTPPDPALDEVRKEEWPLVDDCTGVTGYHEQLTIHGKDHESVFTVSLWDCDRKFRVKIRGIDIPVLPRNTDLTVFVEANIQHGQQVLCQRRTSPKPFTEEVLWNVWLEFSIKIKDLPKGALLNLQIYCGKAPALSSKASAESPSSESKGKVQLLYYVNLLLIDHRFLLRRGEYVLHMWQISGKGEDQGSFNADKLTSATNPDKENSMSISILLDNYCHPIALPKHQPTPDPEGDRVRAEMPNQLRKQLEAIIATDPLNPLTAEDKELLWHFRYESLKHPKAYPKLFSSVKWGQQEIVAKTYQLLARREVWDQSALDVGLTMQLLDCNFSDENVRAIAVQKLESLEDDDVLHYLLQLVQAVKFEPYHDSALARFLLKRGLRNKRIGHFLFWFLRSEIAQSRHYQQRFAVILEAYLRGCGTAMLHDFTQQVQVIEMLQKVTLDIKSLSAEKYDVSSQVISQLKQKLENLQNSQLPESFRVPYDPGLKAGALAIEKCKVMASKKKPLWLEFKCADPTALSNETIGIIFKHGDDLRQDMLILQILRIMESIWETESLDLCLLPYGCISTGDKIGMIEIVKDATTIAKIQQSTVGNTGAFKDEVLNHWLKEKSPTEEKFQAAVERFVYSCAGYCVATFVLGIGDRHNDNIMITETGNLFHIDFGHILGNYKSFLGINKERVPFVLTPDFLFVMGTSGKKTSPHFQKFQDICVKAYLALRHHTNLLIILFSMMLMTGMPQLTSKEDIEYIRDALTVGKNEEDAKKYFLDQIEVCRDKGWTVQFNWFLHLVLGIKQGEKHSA

concentration at 1 h [1]: 22 µM
concentration at 3 h [2]: 8 µM
concentration at 6 h [3]: 11 µM
Ratio (Nucleic Acid): 1
Drug uptake (Plasma [4]): Active
Drug uptake (Plasma [5]): Active
IC50 [8]: 76 nM
IC50 [9]: > 10000 nM
IC50 [10]: 99 nM
IC50 [11]: > 10000 nM
IC50 [12]: > 10000 nM
IC50 [13]: 188 nM
IC50 (Cytochrome P450 3A4): > 40000 nM
metabolised [14]: 27%
IC50 [15]: > 10000 nM
IC50 [16]: 86 nM
Tlast (Mus musculus [17]): 24 h
AUC(0-t) at 24 h [18]: 1950 ng·h/mL
AUC(0-inf) [19]: 1950 ng·h/mL
half-life [20]: 4.4 h
clearance [21]: 51.7 mL/min/kg
Cmax [22]: 641 ng/mL
AUC(0-t) [23]: 846 ng·h/mL
Tlast (Mus musculus [24]): 24 h
bioavailability [25]: 26%
EC50 (Mus musculus [26]): 2100 nM
EC50 (Mus musculus [27]): 1600 nM
concentration at 24 h [28]: 0.7 µM
concentration at 0.5 h [29]: 28 µM
SMILES: Cn1c(Cc2nc(N3CCOCC3)cc(=O)[nH]2)nc2ccccc21
Activity (Mus musculus [6]): Non-toxic
Activity (Mus musculus [7]): Non-toxic

From ChEMBL document CHEMBL2062364, “Discovery and optimization of new benzimidazole- and benzoxazole-pyrimidone selective PI3Kβ inhibitors for the treatment of phosphatase and TENsin homologue (PTEN)-deficient cancers” (J Med Chem, 2012)
